Key:
C2GnT1 = molecular target: T1, C2GnT1 (Homo sapiens, UniProt Q02742); assay: GlcNAc-transferase activity of C2GnT1 with acceptor substrates; format: biochemical
T1 sequence (Q02742 1-428): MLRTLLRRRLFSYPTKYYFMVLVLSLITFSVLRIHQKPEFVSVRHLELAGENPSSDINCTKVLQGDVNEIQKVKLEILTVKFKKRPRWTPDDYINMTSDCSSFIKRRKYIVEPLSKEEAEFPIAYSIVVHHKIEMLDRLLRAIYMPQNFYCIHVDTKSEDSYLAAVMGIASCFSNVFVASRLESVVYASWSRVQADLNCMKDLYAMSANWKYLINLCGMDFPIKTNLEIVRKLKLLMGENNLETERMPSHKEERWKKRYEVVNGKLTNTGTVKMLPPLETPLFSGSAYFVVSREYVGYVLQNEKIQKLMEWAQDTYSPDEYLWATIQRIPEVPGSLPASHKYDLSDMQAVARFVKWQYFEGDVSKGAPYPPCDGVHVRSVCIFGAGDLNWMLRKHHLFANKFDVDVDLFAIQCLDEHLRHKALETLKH
Method: (§1) Controls included the pAcGP67-GalNAc-T3-sol (24). The kinetic properties were determined with partially purified enzymes expressed in High Five™ cells. Partial purification was performed by consecutive chromatography on Amberlite IRA-95, DEAE-Sephacryl and SP-Sepharose essentially as described (25; 25).
(§2) Standard assays were performed using culture supernatant from infected cells in 50 μl reaction mixtures containing 100 mM MES (pH 6.5), 0.1% Nonidet P-40, 150 μM UDP-[^14C]-GlcNAc (2,000 cpm/nmol) (Amersham Pharmacia Biotech), and the indicated concentrations of acceptor substrates (Sigma and Toronto Research Laboratories Ltd., see Table I for structures). Reaction products were quantified by chromatography on Dowex AG1-X8.

C2GnT3 = molecular target: T2, C2GnT3 (Homo sapiens, UniProt Q9P109); assay: GlcNAc-transferase activity of recombinant soluble C2GnT3 with acceptor/donor substrates; format: biochemical; details: for Substrate specificity, C2GnT3 activity: partially purified media of infected High Five cells, background subtracted; for C2GnT3 activity with acceptor substrate (in words): as acceptor substrate; for C2GnT3 activity with donor substrate (in words): as donor substrate, data not shown
T2 construct: An expression vector construct designed to encode amino acid residues 39-453 of C2GnT3; gp67 secretion signal of vector pAcGP67A (N); made in house; host or cells: Sf9 insect cells (baculovirus; culture supernatant); High Five cells for kinetic properties (partially purified)
T2 sequence (Q9P109 39-453): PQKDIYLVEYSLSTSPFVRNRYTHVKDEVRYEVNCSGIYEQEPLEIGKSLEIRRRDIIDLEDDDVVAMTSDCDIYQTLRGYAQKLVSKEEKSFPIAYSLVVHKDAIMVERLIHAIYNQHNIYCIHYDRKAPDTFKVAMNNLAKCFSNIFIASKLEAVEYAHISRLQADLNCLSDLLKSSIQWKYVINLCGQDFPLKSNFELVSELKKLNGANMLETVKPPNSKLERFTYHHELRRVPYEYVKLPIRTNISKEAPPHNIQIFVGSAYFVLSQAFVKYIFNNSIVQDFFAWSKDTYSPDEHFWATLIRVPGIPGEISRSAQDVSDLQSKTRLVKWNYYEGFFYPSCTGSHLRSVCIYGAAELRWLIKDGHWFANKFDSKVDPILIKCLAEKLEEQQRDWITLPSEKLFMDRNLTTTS
Text: with BamH1 and EcoRI restriction sites, respectively (FIG. 2). The PCR product was cloned between the BamHI and EcoRI sites of pAcGP67A (PharMingen), and the insert was fully sequenced. pAcGP67-C2GnT3-sol was co-transfected with Baculo-Gold™ DNA (PharMingen) as described previously (23). Recombinant Baculovirus was obtained after two successive amplifications in Sf9 cells grown in serum-containing medium, and titers of virus were estimated by titration in 24-well plates with monitoring of enzyme activities.
as §1, §2

| Structure (SMILES) | Substrate specificity, C2GnT1 activity (C2GnT1; acceptor substrate 2 mM) [nmol/h/mg] | Substrate specificity, C2GnT1 activity (C2GnT1; acceptor substrate 10 mM) [nmol/h/mg] | Substrate specificity, C2GnT3 activity (C2GnT3; acceptor substrate 2 mM) [nmol/h/mg] | Substrate specificity, C2GnT3 activity (C2GnT3; acceptor substrate 10 mM) [nmol/h/mg] | C2GnT3 activity with acceptor substrate (in words) (C2GnT3) | C2GnT3 activity with donor substrate (in words) (C2GnT3) | Substrate inhibition of C2GnT3 enzyme activity (C2GnT3; high acceptor concentrations up to 20 mM) |
| --- | --- | --- | --- | --- | --- | --- | --- |
| CC(=O)N[C@H]1[C@H](O[C@H]2[C@@H](O)[C@@H](CO)O[C@@H](O[C@H]3[C@H](O)[C@@H](O)C(O)O[C@@H]3CO)[C@@H]2O)O[C@H](CO)[C@@H](O[C@@H]2O[C@H](CO)[C@H](O)[C@H](O)[C@H]2O)[C@@H]1O (mixture of isomers) [lacto-N-neo-tetraose] | <0.1 | <0.1 | <0.1 | <0.1 | no activity | – | – |
| CC(=O)N[C@H]1C(O)O[C@H](CO)[C@H](O)[C@@H]1O (stereo partly drawn) [D-GalNAc] | <0.1 | <0.1 | <0.1 | <0.1 | – | – | – |
| CC(=O)N[C@H]1[C@@H](OP(=O)(O)OP(=O)(O)OC[C@H]2O[C@@H](n3ccc(=O)[nH]c3=O)[C@H](O)[C@@H]2O)O[C@H](CO)[C@H](O)[C@@H]1O [UDP-GalNAc] | – | – | – | – | – | no activity | – |
| CC(=O)N[C@H]1[C@@H](OP(=O)(O)OP(=O)(O)OC[C@H]2O[C@@H](n3ccc(=O)[nH]c3=O)[C@H](O)[C@@H]2O)O[C@H](CO)[C@@H](O)[C@@H]1O [UDP-GlcNAc, UDP-N-acetylglucosamine] | – | – | – | – | – | strict donor substrate specificity | – |
| CC(=O)N[C@H]1[C@@H](Oc2ccc([N+](=O)[O-])cc2)O[C@H](CO)[C@H](O)[C@@H]1O [α-D-GalNAc-1-p-Nph] | <0.1 | <0.1 | <0.1 | <0.1 | no activity | – | – |
| CC(=O)N[C@H]1[C@@H](Oc2ccc([N+](=O)[O-])cc2)O[C@H](CO)[C@H](O)[C@@H]1O[C@@H]1O[C@H](CO)[C@H](O)[C@H](O)[C@H]1O [β-D-Gal-(1-3)-α-D-GalNAc-1-p-Nph] | 16.2 | 23.6 | 18.1 | 26.1 | – | – | No substrate inhibition |
| CC(=O)N[C@@H]1[C@@H](O[C@@H]2O[C@H](CO)[C@H](O)[C@H](O)[C@H]2O)[C@@H](O)[C@@H](CO)O[C@@H]1O [β-D-Gal-(1-3)-α-D-GalNAc] | 9.6 | 19.0 | 6.6 | 14.3 | – | – | – |
| CC(=O)NC1C(OC2C(O)C(CO)OC(Oc3ccc([N+](=O)[O-])cc3)C2NC(C)=O)OC(CO)C(O)C1O [β-D-GlcNAc-(1-3)-α-D-GalNAc-1-p-Nph] | <0.1 | <0.1 | <0.1 | <0.1 | – | – | – |
| CO[C@@H]1O[C@H](CO)[C@H](O)[C@H](O[C@@H]2O[C@H](CO)[C@@H](O)[C@H](O)[C@H]2NC(C)=O)[C@H]1O [β-D-GlcNAc-(1-3)-β-D-Gal-1-Me] | <0.1 | <0.1 | <0.1 | <0.1 | no activity | – | – |

Reference: patent publication US6794169B2, “UDP-N-acetylglucosamine: galactose-β1,3-N-acetylgalactosamine-α-R / (GlcNAc to GalNAc) β1,6-N-acetylglucosaminyltransferase, C2GnT3” (Glycozym ApS, priority 1999, dated 2004)
